Data on 107 compounds can be found in PubChem BioAssay AID651717 (Broad Institute, 2012).

SMILES strings stand for the structures.

In this assay the test system is mESC Bmi1-luciferase reporter, firefly/renilla ratio, 24 h. As to the kind of experiment: Bmi1-luciferase reporter activators in mESC, dose response, esBAF inhibitor project, mouse embryonic stem cells, cherry-pick (AID 651717).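 Further: luciferase knocked into Bmi1 locus with EF-1a renilla as cell number control; rising ratio signals esBAF inhibition which derepresses Bmi1.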 In general terms: In a reporter assay the amount or activity of a reporter protein is the signal.
With `c1ccc(Nc2ccc3ccccc3c2)cc1`, the AC40 was 3.83 µM.
To `COc1ccc(CCn2nnc3ccccc3c2=O)cc1OC` belongs 4.92 µM.
To `Nc1n[nH]c(N)c1N=Nc1ccc(Cl)cc1` belongs 6.31 µM; to `O=C(Nc1nccs1)C(=O)c1c[nH]c2ccccc12`, 0.751 µM.
Then `O=C(Nc1ccc(F)c(Cl)c1)c1cc(C2CCCN(C(=O)C3CC3)C2)on1` (configuration not stated), with below 0.26 µM; and `c1ccc(-c2nc3c(ccc4ccccc43)[nH]2)nc1`, with 0.96 µM.
As for `Nc1nc(SCc2ccccc2)cc(SCc2ccccc2)n1`, the AC40 is 4.44 µM.
Consider `COc1ccccc1Cc1c(-c2ccc(C)cc2)nc2ccc(Cl)cn12`, for which the AC40 is 1.18 µM.
To `CSc1nnc(NC(=O)C23CC4CC(CC(C4)C2)C3)s1` belongs 6.47 µM; to `CCN1CCN(c2ccc(NC(=O)c3cccc(N4CCCC4=O)c3)cc2)CC1`, 10.3 µM; to `CCn1cnc2cc(NCc3ccccc3Cl)ccc21`, 3.92 µM.
To `COc1cc(/C=C/c2ccc(O)cc2)cc(OC)c1` belongs 2.31 µM; to `Cc1ccccc1C(=O)c1cccn1CC(=O)NCc1cccc(Cl)c1`, 13.6 µM; to `COc1cccc2cc(C(=O)N3CCc4ccccc4C3)c(=O)oc12`, 26.9 µM.
To `CCN(C(=O)c1cc2c(=O)n3ccccc3nc2s1)C1CCCCC1` belongs 14 µM.
For `Cc1ccc(C(=O)N2CCc3ccccc32)cc1C`, the AC40 was 3.55 µM.
Then `Cc1ccc(NC(=O)C2CCCN(c3ncccn3)C2)cc1F` (configuration not stated), with 1.16 µM; and `CCC(=O)c1ccc(N2CCCCCC2)c(F)c1`, with 4.92 µM.
Then `Cc1csc(SCCN2C(=O)c3ccccc3C2=O)n1`, with 3.17 µM; and `COc1ccc(Nc2ccc3ccccc3c2)cc1`, with 1.13 µM.
To `CC(C)c1ccc(CNc2ncccn2)cc1` belongs 2.82 µM; to `COc1ccc(-c2cnc(C(O)c3ccccc3)[nH]2)cc1` (configuration not stated), 1.15 µM.
As to `O=C(Nc1ccc(Cl)c(Cl)c1)c1ccccc1NC(=O)C1CC=CCC1C(=O)O` (configuration not stated), the AC40 was 7.6 µM.
Then `CCCC(=O)N1CCN(c2nc3ccc(Br)cc3s2)CC1`, with 1.7 µM.
Then `O=C(Nc1ccc(SC(F)F)cc1)C12CCC(CC1)C2`, with 5.66 µM.
Take `O=C(Nc1ccc2c(c1)C(=O)c1ccccc1-2)c1ccccc1`: the AC40 is 1.08 µM.
Then `CC(C)CN1C(=O)c2ccc(C(=O)Nc3nccs3)cc2C1=O`, with 1.98 µM.
To `COc1ccc(NC(=O)CCC(=O)Nc2ccc3nc(N4CCOCC4)cc(C)c3c2)c(OC)c1` belongs 6.04 µM; to `CCc1sc(C(=O)N2CCN(CC(=O)Nc3cccc(F)c3)CC2)cc1C`, 3.04 µM; to `c1ccc(C2Oc3ccccc3C3CC(c4cccs4)=NN32)cc1` (configuration not stated), 8.04 µM.
As to `O/N=C\c1cnc(N2CCN(c3ccccc3)CC2)s1`, the AC40 was 2.47 µM.
To `COc1ccc(-c2cc(C(=O)Nc3ccc(C(N)=O)cc3)c3ccccc3n2)cc1` belongs 4.1 µM; to `Cc1ccc(N=Nc2cc(C)ccc2O)c(C)c1`, 3.74 µM.
To `CCN1C(=O)C(=CC=CN(C)c2ccccc2)SC1=S` belongs 0.466 µM; to `CC(=O)Nc1nc(-c2ccc(-c3ccccc3)cc2)cs1`, 1.56 µM.
To `Cc1ccc(NC(=O)c2ccc3c(=O)n4c(nc3c2)CCC4)cc1F` belongs 0.945 µM; to `CC(=O)Nc1ccc(CNc2nc3cc(-c4ccc(F)cc4)sc3c(=O)n2C)cc1`, 1.69 µM.
Turning to `NNC(=O)c1nc2ccccc2s1`, the AC40 is 4.4 µM.
To `CS(=O)(=O)c1ccccc1C(=O)Nc1ccc(-c2nc3ccccc3[nH]2)cc1` belongs 3.96 µM.
Then `CC(=O)c1ccc(NC(=O)C2CC(=O)N(Cc3ccccc3)C2)cc1` (configuration not stated), with 3.25 µM; and `C=CCn1c(O)c(C=Nc2ccccc2)sc1=S`, with 5.13 µM.
To `Cc1cc(OCc2cc(C(=O)N(C)C(C)c3ccccn3)no2)cc(C)c1Cl` (configuration not stated) belongs 14.7 µM; to `Cc1ccc(C(=O)NCC(=O)Nc2ccc3c(c2)CCC3)cc1`, 1.44 µM; to `O=C(CCNC(=O)c1ccccc1)Nc1nc2ccccc2s1`, 3.91 µM.
On to `Cc1ccc(S(=O)(=O)N2CCN(C(=O)c3ccc4ccccc4n3)CC2)c(C)c1`, for which the AC40 is 6.53 µM.
Consider `Cc1csc(NC(=O)Cc2c[nH]c3ccccc23)n1`, for which the AC40 is 10.2 µM.
Then `O=C(COC(=O)c1cc2ccccc2oc1=O)Nc1cccc(S(=O)(=O)N2CCCCCC2)c1`, with 12.7 µM.
To `CCOC(=O)N1CCN(C(=O)CSCC(=O)Nc2nc(-c3ccc4c(c3)OCO4)cs2)CC1` belongs 12.1 µM; to `Clc1ccc(/C=N/Nc2nc(Cl)nc3ccccc23)cc1`, 1.35 µM.
For the compound `O=C(CCN1C(=O)/C(=C/C=C/c2ccccc2)SC1=S)Nc1cccnc1`, the AC40 was 2.35 µM.
Then `CCOC(=O)C1=C(CSc2nc(-c3ccccc3)ccc2C#N)OC(N)=C(C#N)C1c1ccc(OC)cc1` (configuration not stated), with 6.12 µM; and `CN(C)S(=O)(=O)c1cccc(C(=O)Nc2ccc(Cl)cn2)c1`, with 5.04 µM; and `Cc1ccc(C(=O)Cc2ccccc2)c(O)c1`, with 6.34 µM.
Then `CCCN1C(=O)c2ccc(C(=O)Nc3ccc4c(c3)OCO4)cc2C1=O`, with 9.64 µM; and `ON=C(CCc1ccccc1)c1ccccc1`, with 0.977 µM; and `COc1ccc(S(=O)(=O)Nc2cc(C(=O)NC3CCCCCC3)ccc2N2CCOCC2)cc1`, with 7.61 µM.
To `O=C(c1cc(-c2ccc(Cl)cc2)on1)N1CCN(c2ccccc2)CC1` belongs 6.4 µM; to `Cc1ccc(Cl)c2c(N=Nc3ccccc3)c(O)[nH]c12`, 0.93 µM; to `O=C1c2ccccc2CN1c1ccccc1`, 3.89 µM.
Consider `COc1ccc2nc(C(c3ccc(C)cc3)n3c(-c4ccccc4Br)nc4ccccc43)[nH]c2c1` (configuration not stated), for which the AC40 is 0.494 µM.
Take `COc1cc(SC)ccc1C(=O)NCC1CCCCC1`: the AC40 is 3.03 µM.
To `CCCc1cc(C(=O)Nc2cc(Br)ccc2O)no1` belongs 8.53 µM; to `OC(c1ccc(F)c(F)c1)c1nc(-c2ccc3ccccc3c2)cs1` (configuration not stated), 20.3 µM.
Then `COc1cccc(-c2noc(C3CCCN(C(=O)CC(C)(C)C)C3)n2)c1` (configuration not stated), with 6.48 µM.
To `CSc1ccc(/C=N/NC(=O)c2ccccc2Cl)cc1` belongs 6.47 µM.
Regarding `COc1ccccc1C(=O)NCCC(=O)NC1CCC(C)CC1` (configuration not stated), the AC40 was 4.6 µM.
To `COc1ccccc1N1C(=O)S/C(=C\c2ccc(C)s2)C1=O` belongs 1.95 µM; to `Cc1ccc(/C(N)=N/OC(=O)CCc2ccccc2)cc1`, 11 µM; to `c1ccc(CCNc2ccc3c(c2)Cc2ccccc2-3)nc1`, 1.53 µM.
Then `COc1ccccc1NC(=O)Cn1nnc(-c2ccccc2NC(=O)c2cc3ccccc3oc2=O)n1`, with 4.5 µM; and `O=C(Nc1ccc(F)cc1F)NC1CCCCCCC1`, with 5.14 µM.
With `COc1ccc(C(=O)CC(=O)c2ccccc2O)cc1OC`, the AC40 is 15.1 µM.
To `CO[C@H]1CN(C)C(=O)c2cc(NC(=O)Nc3ccc4c(c3)OCO4)ccc2OC[C@H](C)NC[C@@H]1C` belongs 13.2 µM; to `CCCCc1nc2cc(C(=O)N3CCN(c4nc(C)cnc4C)CC3)ccc2o1`, 2.43 µM; to `Cc1ccc(O)c(CNc2ccccn2)c1`, 16.7 µM.
With `COc1cccc(NC(=O)N2CCc3nc(Nc4ccc(C(C)C)cc4)ncc3C2)c1`, the AC40 is 29.9 µM.
As to `O=C(c1ccncc1)N1N=C(c2ccc(Cl)cc2)CC1c1ccccc1O` (configuration not stated), the AC40 is 2.04 µM.
To `COC(=O)c1ccc2[nH]c(C(C)(C)O)c(C)c2c1` belongs 1.37 µM; to `Clc1ccccc1C=NNc1ccccn1`, 2.27 µM; to `COc1nc(Nc2ccc(C(C)C)cc2)nc(OC)n1`, 10.8 µM.
Then `O=C(Nc1ccncc1)c1ccc2ncsc2c1`, with 22.8 µM; and `CC(C)(O)c1cc2ccc(C#Cc3ccsc3)cc2c(=O)o1`, with 3.42 µM.
Then `Fc1ccc2nc(-c3ccccc3)ccc2c1`, with 1.14 µM; and `Cn1c(SCc2c(F)cccc2Cl)nnc1-c1cccs1`, with 11.1 µM; and `CC(=O)O/N=C(\N)c1ccc(-c2csnn2)cc1`, with 29.5 µM.
Turning to `Cc1ccc(OCn2c(=O)sc3ccccc32)cc1`, the AC40 was 6.12 µM.
To `CC(=O)N(C)c1nc(-c2ccc(Cl)cc2)cs1` belongs 5.63 µM.
To `O=C(COC(=O)[C@H](Cc1c[nH]c2ccccc12)NC(=O)c1ccc(Cl)cc1)Nc1ccc2c(c1)OCO2` belongs 10.5 µM; to `CC(C)C(=O)Nc1ccc(C(=O)c2ccccc2)cc1`, 8.18 µM; to `COc1ccc(-c2coc3cc(OC(C)=O)ccc3c2=S)cc1`, 0.794 µM.
Turning to `O=C1/C(=C/c2cccc3ccccc23)CCCc2ccccc21`, the AC40 was 5.34 µM.
For the compound `Cn1cccc1-c1nc2ccc(NC(=O)c3cccs3)cc2[nH]1`, the AC40 is 11.7 µM.
Then `CN(Cc1ccccn1)C(=O)c1cc(COc2ccc(F)c(F)c2)on1`, with 3.82 µM.
Regarding `COc1ccc(-c2cc(C(=O)Nc3ccc(NC(C)=O)cc3)[nH]n2)c(C)c1`, the AC40 is 1.21 µM.
Then `Cc1ccc(-c2nc(COC(=O)c3c(C)noc3C)cs2)cc1`, with 4.93 µM; and `CCCOc1ccc(NC(=O)C2CC(=O)N/C(=N/N=C(C)/C=C/c3ccc(N(C)C)cc3)S2)cc1` (configuration not stated), with 6 µM; and `N#CCc1ccc(OC(=O)c2cccnc2Cl)cc1`, with 15.7 µM.
Then `O=C(O)c1ccc(O)c2ncccc12`, with 1.67 µM.
On to `Cc1ccc(NC(=O)Cc2noc3ccccc23)cc1`, for which the AC40 is 2.47 µM.
To `Nc1cc(OCc2ccccc2)ccc1OCc1ccccc1` belongs 5.17 µM.
To `O=C(Cc1cccs1)Nc1nc2c(s1)CCCC2` belongs 1.66 µM.
As for `CCN(CC)S(=O)(=O)c1cccc(-c2nc3n(n2)Cc2ccccc2-3)c1`, the AC40 is 21.7 µM.
Then `COc1ccc(Cc2c(-c3ccc(F)cc3)nc3ccc(Br)cn23)c(C)c1`, with 3.51 µM.
To `O=C(Nc1ccc(F)cc1)NC1CCCCCCC1` belongs 12 µM.
Then `Cc1ccc(C2/C(=C(/O)c3cnn(-c4ccccc4)c3C)C(=O)C(=O)N2CCN2CCOCC2)o1` (configuration not stated), with 8.69 µM; and `CN(C)c1ccc(C(=O)c2ccccc2)cc1`, with 2.69 µM.
As to `COc1cc(OC)c2c(-c3cccc(/C=C/c4ccc(F)cc4)c3)cc(=O)oc2c1`, the AC40 was 3.49 µM.
